The values that follow come from paper PMC10794144, “A novel antibiotic class targeting the lipopolysaccharide transporter” (Nature, 2024).

Common to all, as to experiment: Off-target screening (CEREP)
Holding throughout (assay type): binding
Common to all, as to settings: read-out: percent inhibition

In assay [1] the target is T1, Androgen receptor (Homo sapiens, UniProt P10275).
T1 construct: purchased Eurofins CEREP SA
T1 sequence (P10275 1-920): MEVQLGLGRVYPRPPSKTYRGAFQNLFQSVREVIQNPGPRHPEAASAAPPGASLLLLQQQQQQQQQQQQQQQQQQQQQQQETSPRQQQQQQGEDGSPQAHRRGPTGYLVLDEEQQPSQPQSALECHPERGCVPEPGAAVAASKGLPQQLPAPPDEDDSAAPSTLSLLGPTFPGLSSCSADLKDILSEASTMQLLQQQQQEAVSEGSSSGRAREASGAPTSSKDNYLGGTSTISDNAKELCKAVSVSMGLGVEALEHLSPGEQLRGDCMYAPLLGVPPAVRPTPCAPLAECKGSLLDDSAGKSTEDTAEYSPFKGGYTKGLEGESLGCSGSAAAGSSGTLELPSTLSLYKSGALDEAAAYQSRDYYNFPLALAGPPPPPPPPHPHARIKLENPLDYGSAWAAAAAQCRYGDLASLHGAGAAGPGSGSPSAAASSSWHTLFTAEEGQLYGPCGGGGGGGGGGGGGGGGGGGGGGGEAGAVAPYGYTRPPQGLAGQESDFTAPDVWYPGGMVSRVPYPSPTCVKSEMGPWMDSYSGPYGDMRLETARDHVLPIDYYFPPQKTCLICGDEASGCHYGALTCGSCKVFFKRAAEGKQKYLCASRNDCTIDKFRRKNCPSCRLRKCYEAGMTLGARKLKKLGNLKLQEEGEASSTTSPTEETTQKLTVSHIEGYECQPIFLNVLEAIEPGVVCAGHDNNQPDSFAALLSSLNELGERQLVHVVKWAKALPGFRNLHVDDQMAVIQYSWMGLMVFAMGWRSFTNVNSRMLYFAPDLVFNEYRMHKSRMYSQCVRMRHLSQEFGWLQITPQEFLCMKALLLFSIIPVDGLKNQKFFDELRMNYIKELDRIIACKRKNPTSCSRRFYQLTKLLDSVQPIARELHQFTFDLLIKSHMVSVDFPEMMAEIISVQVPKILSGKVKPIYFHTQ
Here is the method:
(§1) Supplementary Table 1 │ Off-target activity screening f or MCP compou nds […]
(§2) The assays given in the table above were conducted at Eurofins CEREP S A (Celle-Lévescault, France) and were run as single point measurements in duplicates in the presence of 10 µ M of the test compound and reported as percent inhibition of the radioligand signal or control enzymatic activity. n.d., not

The target of assay [2] is T2, Histamine H1 receptor (Homo sapiens, UniProt P35367).
T2 construct: purchased Eurofins CEREP SA
As to the method: as §1, §2

The target in assay [3] is T3, Histamine H3 receptor (Homo sapiens, UniProt Q9Y5N1).
T3 construct: purchased Eurofins CEREP SA
As to the method:
as §1, §2

The target in assay [4] is T4, PPAR gamma (Homo sapiens, UniProt P37231).
T4 construct: purchased Eurofins CEREP SA
T4 sequence (P37231 1-505): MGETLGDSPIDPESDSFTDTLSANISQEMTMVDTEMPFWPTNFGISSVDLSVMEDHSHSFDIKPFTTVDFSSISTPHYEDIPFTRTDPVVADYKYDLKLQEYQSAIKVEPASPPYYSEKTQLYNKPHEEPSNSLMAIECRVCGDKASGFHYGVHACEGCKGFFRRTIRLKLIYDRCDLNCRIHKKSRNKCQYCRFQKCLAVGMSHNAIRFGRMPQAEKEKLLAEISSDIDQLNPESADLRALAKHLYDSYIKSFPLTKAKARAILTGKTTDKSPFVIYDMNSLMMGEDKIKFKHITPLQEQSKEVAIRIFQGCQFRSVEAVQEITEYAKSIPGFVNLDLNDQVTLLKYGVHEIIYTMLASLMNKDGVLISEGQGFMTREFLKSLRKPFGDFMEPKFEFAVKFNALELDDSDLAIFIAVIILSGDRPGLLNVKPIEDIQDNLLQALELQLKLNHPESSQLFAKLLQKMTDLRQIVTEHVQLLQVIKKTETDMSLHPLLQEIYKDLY
As to the method:
as §1, §2

Assay [5] addresses T5, Dopamine D2 receptor (Homo sapiens, UniProt P14416).
T5 construct: purchased Eurofins CEREP SA
Here is the method: as §1, §2

Assay [6] addresses T6, Alpha2A-adrenoreceptor (Homo sapiens, UniProt P08913).
T6 construct: purchased Eurofins CEREP SA
T6 sequence (P08913 1-465): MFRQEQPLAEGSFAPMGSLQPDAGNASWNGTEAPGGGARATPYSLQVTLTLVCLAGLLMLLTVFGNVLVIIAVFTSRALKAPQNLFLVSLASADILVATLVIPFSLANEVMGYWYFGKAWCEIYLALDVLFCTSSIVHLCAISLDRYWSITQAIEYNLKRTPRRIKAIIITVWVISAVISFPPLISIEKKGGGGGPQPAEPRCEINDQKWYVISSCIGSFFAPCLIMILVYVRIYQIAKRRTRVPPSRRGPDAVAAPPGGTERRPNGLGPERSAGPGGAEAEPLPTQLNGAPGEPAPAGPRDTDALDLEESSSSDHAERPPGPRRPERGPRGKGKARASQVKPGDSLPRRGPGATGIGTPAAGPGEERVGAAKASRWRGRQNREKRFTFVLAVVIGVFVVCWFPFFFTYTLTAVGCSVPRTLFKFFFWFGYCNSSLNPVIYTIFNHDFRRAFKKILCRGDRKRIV
As to the method: as §1, §2

Assay [7] addresses T7, 5HT3 (Homo sapiens, UniProt P46098).
T7 construct: purchased Eurofins CEREP SA
T7 sequence (P46098 24-478): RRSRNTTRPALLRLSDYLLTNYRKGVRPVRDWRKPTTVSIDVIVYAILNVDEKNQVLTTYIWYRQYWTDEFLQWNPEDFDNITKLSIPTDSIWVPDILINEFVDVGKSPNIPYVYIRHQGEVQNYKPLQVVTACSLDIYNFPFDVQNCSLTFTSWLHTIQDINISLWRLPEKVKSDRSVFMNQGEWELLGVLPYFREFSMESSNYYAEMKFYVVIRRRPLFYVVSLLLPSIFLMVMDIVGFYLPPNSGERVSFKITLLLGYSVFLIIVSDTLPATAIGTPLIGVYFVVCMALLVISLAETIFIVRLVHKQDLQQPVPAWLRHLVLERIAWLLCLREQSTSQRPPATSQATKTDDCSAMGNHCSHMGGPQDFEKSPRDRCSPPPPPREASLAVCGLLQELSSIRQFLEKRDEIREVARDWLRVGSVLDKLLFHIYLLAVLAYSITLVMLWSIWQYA
As to the method:
as §1, §2

Assay [8] deals with T8, Histamine H2 receptor (Homo sapiens, UniProt P25021).
T8 construct: purchased Eurofins CEREP SA
As to the method: as §1, §2

Where two headings read alike, the source gives them in different places.

T8 sequence (P25021 whole entry): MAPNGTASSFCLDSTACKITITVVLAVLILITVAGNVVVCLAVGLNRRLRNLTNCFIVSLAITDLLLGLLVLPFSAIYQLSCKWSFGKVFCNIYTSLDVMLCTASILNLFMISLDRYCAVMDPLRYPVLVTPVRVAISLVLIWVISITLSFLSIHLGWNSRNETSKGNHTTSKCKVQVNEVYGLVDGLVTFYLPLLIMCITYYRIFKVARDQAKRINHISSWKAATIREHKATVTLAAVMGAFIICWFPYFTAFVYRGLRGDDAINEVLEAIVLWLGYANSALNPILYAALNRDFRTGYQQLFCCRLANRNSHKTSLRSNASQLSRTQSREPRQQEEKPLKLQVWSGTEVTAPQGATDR
T2 sequence (P35367 whole entry): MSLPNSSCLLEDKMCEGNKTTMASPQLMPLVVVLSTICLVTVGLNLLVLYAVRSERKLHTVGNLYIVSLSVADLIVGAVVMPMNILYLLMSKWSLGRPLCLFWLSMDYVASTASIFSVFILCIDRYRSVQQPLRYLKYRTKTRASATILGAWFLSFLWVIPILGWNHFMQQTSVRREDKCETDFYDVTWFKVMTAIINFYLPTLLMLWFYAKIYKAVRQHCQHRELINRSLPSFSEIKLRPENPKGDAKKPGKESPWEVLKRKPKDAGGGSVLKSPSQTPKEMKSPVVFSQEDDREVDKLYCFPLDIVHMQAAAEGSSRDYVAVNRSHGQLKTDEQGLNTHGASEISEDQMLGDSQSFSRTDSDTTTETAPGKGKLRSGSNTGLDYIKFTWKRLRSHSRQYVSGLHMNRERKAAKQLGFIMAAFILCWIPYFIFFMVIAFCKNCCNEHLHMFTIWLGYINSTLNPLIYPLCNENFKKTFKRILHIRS
T3 sequence (Q9Y5N1 whole entry): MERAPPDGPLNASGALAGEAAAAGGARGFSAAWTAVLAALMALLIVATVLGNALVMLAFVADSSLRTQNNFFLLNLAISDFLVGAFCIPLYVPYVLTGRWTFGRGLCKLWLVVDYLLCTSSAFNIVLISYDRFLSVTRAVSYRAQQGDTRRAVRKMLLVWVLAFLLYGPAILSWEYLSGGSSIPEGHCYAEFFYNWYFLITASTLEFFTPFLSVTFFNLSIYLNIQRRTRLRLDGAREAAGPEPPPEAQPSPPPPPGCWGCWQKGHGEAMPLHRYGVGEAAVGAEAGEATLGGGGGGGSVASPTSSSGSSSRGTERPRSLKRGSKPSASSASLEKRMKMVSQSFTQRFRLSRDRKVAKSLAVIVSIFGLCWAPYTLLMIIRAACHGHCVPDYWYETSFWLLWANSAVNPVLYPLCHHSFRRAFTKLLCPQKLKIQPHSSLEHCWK
T5 sequence (P14416 whole entry): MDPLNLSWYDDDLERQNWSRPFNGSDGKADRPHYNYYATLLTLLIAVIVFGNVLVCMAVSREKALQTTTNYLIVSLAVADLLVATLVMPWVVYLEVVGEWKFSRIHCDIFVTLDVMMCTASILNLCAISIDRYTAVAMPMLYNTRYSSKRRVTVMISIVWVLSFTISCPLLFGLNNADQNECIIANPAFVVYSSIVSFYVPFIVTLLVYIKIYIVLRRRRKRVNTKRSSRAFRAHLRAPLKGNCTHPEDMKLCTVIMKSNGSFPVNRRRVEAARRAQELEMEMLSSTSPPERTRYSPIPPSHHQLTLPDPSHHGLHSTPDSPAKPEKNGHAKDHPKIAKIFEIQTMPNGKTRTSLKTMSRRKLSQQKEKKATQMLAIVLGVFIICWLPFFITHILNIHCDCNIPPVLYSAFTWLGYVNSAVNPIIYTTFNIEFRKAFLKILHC

Broadly, the inhibition is the change of the read-out against control, counted positive when it falls. As for `CN1C(=O)[C@H](CCCCN)NC(=O)[C@H](CCCN)NCc2cccnc2Sc2c(Cl)ccc(-c3ccc(C(=O)O)cc3)c2CNC(=O)[C@@H]1Cc1c[nH]c2ccccc12` [RO7202110], the inhibition at 10 µM was 3% in assay [1] (10 µM, duplicates); -3% in assay [2] (10 µM, duplicates); 5% in assay [3] (10 µM, duplicates); -8% in assay [4] (10 µM, duplicates); 28% in assay [5] (10 µM, duplicates); -2% in assay [6] (10 µM, duplicates). The inhibition at 10 µM in assay [7] (10 µM, duplicates) is 6%; in assay [8] (10 µM, duplicates), 3%.
On to `CN1C(=O)[C@H](CCCCN)NC(=O)[C@H](CCCN)NCc2cccnc2Sc2c(Cl)ccc(Cl)c2CNC(=O)[C@@H]1Cc1c[nH]c2ccccc12` [RO7075573], for which the inhibition at 10 µM is -4% in assay [1]; 4% in assay [2]; -4% in assay [3]; -16% in assay [4]; 28% in assay [5]; -5% in assay [6]. The inhibition at 10 µM was found to be 8% in assay [7] and 11% in assay [8].
`CN1C(=O)[C@H](CCCCN)NC(=O)[C@H](CCCN)NCc2cccnc2Sc2cccc(-c3ccc(C(=O)O)cc3)c2CNC(=O)[C@@H]1Cc1c[nH]c2ccccc12` [zosurabalpin]: the inhibition at 10 µM was -5% in assay [1]; -4% in assay [2]; 5% in assay [3]; -4% in assay [4]; 14% in assay [5]; 4% in assay [6]. Also, the inhibition at 10 µM is 3% in assay [7] and -2% in assay [8].
On to `CN1C(=O)[C@H](CCCN)NC(=O)[C@H](CCCN)NCc2ccccc2Sc2ccccc2CNC(=O)[C@@H]1Cc1c[nH]c2ccccc12` [RO7036668], for which the inhibition at 10 µM in assay [1] (10 µM, duplicates) was 6%; in assay [2] (10 µM, duplicates), 16%; in assay [3] (10 µM, duplicates) it was 12%; in assay [4] (10 µM, duplicates), -1%; in assay [5] (10 µM, duplicates), 74%; in assay [6] (10 µM, duplicates) it was -2%. The inhibition at 10 µM in assay [7] (10 µM, duplicates) worked out at 6%; in assay [8] (10 µM, duplicates), 12%.
